According to US10202361B2, “Pyridazinones as herbicides” (E I DU PONT DE NEMOURS AND COMPANY, priority 2014, dated 2019):

Key:
Type in all cases: in vivo
[1] = test system: crabgrass, Large (large crabgrass, Digitaria sanguinalis); test: Test A pre-/postemergence greenhouse herbicide test; details: 0 to 100 scale (0 no effect, 100 complete control), approx. 10 d
From the text: (§1) Seeds of plant species selected from barnyardgrass (Echinochloa crus-galli), crabgrass, Large (large crabgrass, Digitaria sanguinalis), foxtail, giant (giant foxtail, Setaria faberii), morningglory (Ipomoea spp.), pigweed (Amaranthus retroflexus), velvetleaf (Abutilon theophrasti), wheat (Triticum aestivum), and corn (Zea mays) were planted into a blend of loam soil and sand and treated preemergence with a directed soil spray using test chemicals formulated in a non-phytotoxic solvent mixture which included a surfactant. At the same time these species were also treated with postemergence applications of test chemicals formulated in the same manner.
(§2) Plants ranged in height from 2 to 10 cm and were in the one- to two-leaf stage for the postemergence treatment. Treated plants and untreated controls were maintained in a greenhouse for approximately 10 d, after which time all treated plants were compared to untreated controls and visually evaluated for injury. Plant response ratings, summarized in Table A, are based on a 0 to 100 scale where 0 is no effect and 100 is complete control. A dash (-) response means no test result.

[2] = test system: wheat (Triticum aestivum); test: as above; details: 0 to 100 scale (0 no effect, 100 complete control), approx. 10 d
From the text: as §1, §2

[3] = test system: velvetleaf (Abutilon theophrasti); test: as above; details: 0 to 100 scale (0 no effect, 100 complete control), approx. 10 d
From the text: as §1, §2

[4] = test system: barnyardgrass (Echinochloa crus-galli); test: as above; details: Postemergence, 0 to 100 scale (0 no effect, 100 complete control), approx. 10 d
From the text: as §1, §2

[5] = test system: pigweed (Amaranthus retroflexus); test: as above; details: 0 to 100 scale (0 no effect, 100 complete control), approx. 10 d
From the text: as §1, §2

corn (Zea mays) = test: as above; details: 0 to 100 scale (0 no effect, 100 complete control), approx. 10 d
From the text: as §1, §2

[6] = test system: morningglory (Ipomoea spp.); test: as above; details: 0 to 100 scale (0 no effect, 100 complete control), approx. 10 d
From the text: as §1, §2

[7] = test system: foxtail, giant (giant foxtail, Setaria faberii); test: as above; details: 0 to 100 scale (0 no effect, 100 complete control), approx. 10 d
From the text: as §1, §2

rice (Oryza sativa) = test: Test B flooded paddy test; details: Flood, 250 g ai/ha; scale of 0 to 100, 0 is no effect, 100 is complete control; 13 to 15 d
Experimental: (§3) Plant species in the flooded paddy test selected from rice (Oryza sativa), small-flower sedge, umbrella (small-flower umbrella sedge, Cyperus difformis), ducksalad (Heteranthera limosa), and barnyardgrass (Echinochloa crus-galli) were grown to the 2-leaf stage for testing. At time of treatment, test pots were flooded to 3 cm above the soil surface, treated by application of test compounds directly to the paddy water, and then maintained at that water depth for the duration of the test. Treated plants and controls were maintained in a greenhouse for 13 to 15 d, after which time all species were compared to controls and visually evaluated. Plant response ratings, summarized in Table B, are based on a scale of 0 to 100 where 0 is no effect and 100 is complete control. A dash (-) response means no test result.

[8] = test system: barnyardgrass (Echinochloa crus-galli); test: Test B flooded paddy test; details: Flood, 250 g ai/ha; scale of 0 to 100, 0 is no effect, 100 is complete control; 13 to 15 d
Experimental: as §3

[9] = test system: ducksalad (Heteranthera limosa); test: Test B flooded paddy test; details: Flood, 250 g ai/ha; scale of 0 to 100, 0 is no effect, 100 is complete control; 13 to 15 d
Experimental: as §3

[10] = test system: sedge, umbrella (small-flower umbrella sedge, Cyperus difformis); test: Test B flooded paddy test; details: Flood, 250 g ai/ha; scale of 0 to 100, 0 is no effect, 100 is complete control; 13 to 15 d
Experimental: as §3

Cc1cc(Oc2cccc(C(F)(F)F)n2)nn(-c2ccc(F)cc2)c1=O [Compound 11]
Plant response rating, Crabgrass, Large ([1]; Postemergence, 125 g ai/ha): 10 | Plant response rating, Crabgrass, Large ([1]; Postemergence, 500 g ai/ha): 20 | Plant response rating, Crabgrass, Large ([1]; Preemergence, 125 g ai/ha): 0 | Plant response rating, Crabgrass, Large ([1]; Preemergence, 500 g ai/ha): 10 | Plant response rating, Wheat ([2]; Postemergence, 125 g ai/ha): 0 | Plant response rating, Wheat ([2]; Postemergence, 500 g ai/ha): 0 | Plant response rating, Wheat ([2]; Preemergence, 125 g ai/ha): 0 | Plant response rating, Wheat ([2]; Preemergence, 500 g ai/ha): 0 | Plant response rating, Velvetleaf ([3]; Postemergence, 125 g ai/ha): 0 | Plant response rating, Velvetleaf ([3]; Postemergence, 500 g ai/ha): 0 | Plant response rating, Velvetleaf ([3]; Preemergence, 125 g ai/ha): 0 | Plant response rating, Velvetleaf ([3]; Preemergence, 500 g ai/ha): 0 | Plant response rating, Barnyardgrass ([4]; 125 g ai/ha): 0 | Plant response rating, Barnyardgrass ([4]; 500 g ai/ha): 0 | Plant response rating, Pigweed ([5]; Postemergence, 125 g ai/ha): 60 | Plant response rating, Pigweed ([5]; Postemergence, 500 g ai/ha): 70 | Plant response rating, Pigweed ([5]; Preemergence, 125 g ai/ha): 0 | Plant response rating, Pigweed ([5]; Preemergence, 500 g ai/ha): 0 | Plant response rating, Corn (corn (Zea mays); Postemergence, 125 g ai/ha): 0 | Plant response rating, Corn (corn (Zea mays); Postemergence, 500 g ai/ha): 0 | Plant response rating, Corn (corn (Zea mays); Preemergence, 125 g ai/ha): 0 | Plant response rating, Corn (corn (Zea mays); Preemergence, 500 g ai/ha): 0 | Plant response rating, Morningglory ([6]; Postemergence, 125 g ai/ha): 20 | Plant response rating, Morningglory ([6]; Postemergence, 500 g ai/ha): 30 | Plant response rating, Morningglory ([6]; Preemergence, 125 g ai/ha): 0 | Plant response rating, Morningglory ([6]; Preemergence, 500 g ai/ha): 0 | Plant response rating, Foxtail, Giant ([7]; Postemergence, 125 g ai/ha): 10 | Plant response rating, Foxtail, Giant ([7]; Postemergence, 500 g ai/ha): 20 | Plant response rating, Foxtail, Giant ([7]; Preemergence, 125 g ai/ha): 0 | Plant response rating, Foxtail, Giant ([7]; Preemergence, 500 g ai/ha): 0 | Plant response rating, Rice (rice (Oryza sativa)): 0 | Plant response rating, Barnyardgrass [8]: 0 | Plant response rating, Ducksalad [9]: 0 | Plant response rating, Sedge, Umbrella [10]: 0

Cc1cc(=O)n(-c2ccc(F)cc2)nc1Oc1cccc(C(F)(F)F)n1 [Compound 12]
Plant response rating, Crabgrass, Large ([1]; Postemergence, 125 g ai/ha): 20 | Plant response rating, Crabgrass, Large ([1]; Postemergence, 500 g ai/ha): 70 | Plant response rating, Crabgrass, Large ([1]; Preemergence, 125 g ai/ha): 100 | Plant response rating, Crabgrass, Large ([1]; Preemergence, 500 g ai/ha): 100 | Plant response rating, Wheat ([2]; Postemergence, 125 g ai/ha): 0 | Plant response rating, Wheat ([2]; Postemergence, 500 g ai/ha): 20 | Plant response rating, Wheat ([2]; Preemergence, 125 g ai/ha): 0 | Plant response rating, Wheat ([2]; Preemergence, 500 g ai/ha): 0 | Plant response rating, Velvetleaf ([3]; Postemergence, 125 g ai/ha): 40 | Plant response rating, Velvetleaf ([3]; Postemergence, 500 g ai/ha): 60 | Plant response rating, Velvetleaf ([3]; Preemergence, 125 g ai/ha): 30 | Plant response rating, Velvetleaf ([3]; Preemergence, 500 g ai/ha): 70 | Plant response rating, Barnyardgrass ([4]; 125 g ai/ha): 40 | Plant response rating, Barnyardgrass ([4]; 500 g ai/ha): 70 | Plant response rating, Pigweed ([5]; Postemergence, 125 g ai/ha): 60 | Plant response rating, Pigweed ([5]; Postemergence, 500 g ai/ha): 90 | Plant response rating, Pigweed ([5]; Preemergence, 125 g ai/ha): 90 | Plant response rating, Pigweed ([5]; Preemergence, 500 g ai/ha): 100 | Plant response rating, Corn (corn (Zea mays); Postemergence, 125 g ai/ha): 10 | Plant response rating, Corn (corn (Zea mays); Postemergence, 500 g ai/ha): 50 | Plant response rating, Corn (corn (Zea mays); Preemergence, 125 g ai/ha): 0 | Plant response rating, Corn (corn (Zea mays); Preemergence, 500 g ai/ha): 30 | Plant response rating, Morningglory ([6]; Postemergence, 125 g ai/ha): 50 | Plant response rating, Morningglory ([6]; Postemergence, 500 g ai/ha): 90 | Plant response rating, Morningglory ([6]; Preemergence, 125 g ai/ha): 0 | Plant response rating, Morningglory ([6]; Preemergence, 500 g ai/ha): 50 | Plant response rating, Foxtail, Giant ([7]; Postemergence, 125 g ai/ha): 20 | Plant response rating, Foxtail, Giant ([7]; Postemergence, 500 g ai/ha): 80 | Plant response rating, Foxtail, Giant ([7]; Preemergence, 125 g ai/ha): 80 | Plant response rating, Foxtail, Giant ([7]; Preemergence, 500 g ai/ha): 100 | Plant response rating, Rice (rice (Oryza sativa)): 20 | Plant response rating, Barnyardgrass [8]: 20 | Plant response rating, Ducksalad [9]: 0 | Plant response rating, Sedge, Umbrella [10]: 0
